Experimental data as given in US12121540B2, “CBL inhibitors and compositions for use in adoptive cell therapy” (Nurix Therapeutics, Inc., priority 2019, dated 2024).

Tested on: E.G7-OVA tumors
Test: Oral Cbl inhibitor treatment with expanded OT-1 cells in tumor-bearing mice
Format: in vivo, mouse
Description: Tumor volume was measured roughly every five days after cell transfer.
OT-1 cells were assessed in mouse blood 5 days and 20 days after transfer.

C[C@H]1CCCN(Cc2cc3c(c(C(F)(F)F)c2)CN(c2cccc([C@]4(c5nncn5C)C[C@@H](C)C4)c2)C3=O)C1 [compound 116]
Anti-tumor efficacy (tumor volume) of OT-1 cells (oral administration, OT-1 cells expanded with compound 103 plus IL-2, FIG. 18): enhanced the anti-tumor efficacy
Survival of mice (oral administration, OT-1 cells expanded with compound 103 plus IL-2, FIG. 19): enhanced survival
Persistence of OT-1 cells in mouse blood (oral, OT-1 cells expanded with Cbl inhibitor plus IL-2): longer persistence
Frequency of OT-1 cells in mouse blood (oral, OT-1 cells expanded with Cbl inhibitor plus IL-2, 5 and 20 days after transfer): increased frequency
